{"source": "paper doi:10.1101/2023.10.24.563883v2", "about": "(biorxiv, 2024)", "biological_target": "T1, LPHN2 (Homo sapiens, UniProt O95490)", "T1 sequence (O95490 26-1459)": "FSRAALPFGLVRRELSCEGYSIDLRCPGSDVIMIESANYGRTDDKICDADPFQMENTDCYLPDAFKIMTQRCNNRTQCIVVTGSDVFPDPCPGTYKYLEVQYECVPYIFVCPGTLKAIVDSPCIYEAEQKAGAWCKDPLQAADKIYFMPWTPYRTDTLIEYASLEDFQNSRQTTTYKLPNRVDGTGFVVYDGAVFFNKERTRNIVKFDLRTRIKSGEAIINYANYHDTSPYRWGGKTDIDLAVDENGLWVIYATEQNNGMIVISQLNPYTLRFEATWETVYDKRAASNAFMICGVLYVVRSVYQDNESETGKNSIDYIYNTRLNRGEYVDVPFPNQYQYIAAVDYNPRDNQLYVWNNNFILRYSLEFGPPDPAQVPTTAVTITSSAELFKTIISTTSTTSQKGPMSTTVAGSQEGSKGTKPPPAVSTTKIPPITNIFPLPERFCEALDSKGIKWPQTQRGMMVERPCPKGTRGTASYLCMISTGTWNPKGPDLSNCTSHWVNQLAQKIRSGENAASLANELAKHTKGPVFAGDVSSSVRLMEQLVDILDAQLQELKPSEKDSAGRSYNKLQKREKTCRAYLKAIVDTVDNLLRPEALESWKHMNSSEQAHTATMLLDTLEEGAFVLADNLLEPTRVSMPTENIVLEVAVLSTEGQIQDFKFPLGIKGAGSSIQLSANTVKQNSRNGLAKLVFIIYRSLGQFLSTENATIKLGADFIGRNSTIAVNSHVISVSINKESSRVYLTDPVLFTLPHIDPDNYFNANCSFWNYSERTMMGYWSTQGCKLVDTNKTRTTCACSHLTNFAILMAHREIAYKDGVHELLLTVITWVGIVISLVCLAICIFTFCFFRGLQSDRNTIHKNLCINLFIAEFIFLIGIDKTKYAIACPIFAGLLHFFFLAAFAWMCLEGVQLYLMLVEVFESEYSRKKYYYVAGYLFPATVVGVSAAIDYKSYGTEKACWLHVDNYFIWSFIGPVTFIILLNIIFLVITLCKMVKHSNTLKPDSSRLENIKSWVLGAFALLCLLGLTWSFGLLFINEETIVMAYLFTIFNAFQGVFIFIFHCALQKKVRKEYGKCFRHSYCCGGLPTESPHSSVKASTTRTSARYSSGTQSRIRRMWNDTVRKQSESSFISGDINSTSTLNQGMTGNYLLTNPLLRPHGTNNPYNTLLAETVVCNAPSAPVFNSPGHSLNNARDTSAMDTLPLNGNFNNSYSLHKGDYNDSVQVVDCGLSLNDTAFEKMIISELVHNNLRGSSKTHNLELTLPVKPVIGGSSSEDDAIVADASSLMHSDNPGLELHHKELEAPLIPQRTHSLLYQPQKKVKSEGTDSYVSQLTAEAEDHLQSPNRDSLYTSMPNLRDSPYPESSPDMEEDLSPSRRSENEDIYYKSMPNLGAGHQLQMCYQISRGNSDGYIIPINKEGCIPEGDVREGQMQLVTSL", "experiment": "BRET G protein", "assay_type": "cell-based"}
{"molecule": "COc1ccc(OC)c(NC2=NC(=O)CC(C(=O)Nc3cc(C(F)(F)F)ccc3Cl)S2)c1", "note": "(stereo not shown) [D11]", "values": [{"measurement": "EC50", "value": "39.9 ± 16.2", "unit": "nM"}]}
